Consider five molecules from patent US20080214445A1, “Method of Treating a Solid Tumor Disease Comprising Administering a Combination Comprising Imatinib and an Inhibitor of an Efflux Pump Active at the Blood Brain Barrier or Demethyl Imatinib” (priority 2005, published 2008).

One data set can be described thus: in vivo. As to conditions: Hanover Wistar, rat, iv, 12.5 mg/kg.
For data set [1] the following is noted: Hanover Wistar, rat, in vivo, iv.
Method: (§1) Blood, plasma, brain are collected for each animal.
(§2) All samples are analyzed for total radioactivity by liquid scintillation counting (LSC). In brief, 50 μL blood samples are successively mixed and incubated with 0.5 mL Soluene 350-isopropanol 1:1 (v/v), 0.2 mL H2O2 30% (overnight), 0.5 mL HCl 2N (20 min) and 5 mL IrgaSafe (Packard) (overnight). 50 μL plasma samples are successively mixed and incubated with 0.5 mL Soluene 350-isopropanol 1:1 (v/v) (overnight), 0.5 mL HCl 2N (20 min) and 5 mL IrgaSafe (overnight). 250 μL brain homogenate samples are treated by 2 mL Soluene 350 (overnight), 0.5 mL HCl 2N (20 min) and 17.5 mL Irgasafe (overnight). All samples are counted in Tricarb liquid scintillation analyzers (Packard).
(§3) All blood samples are spiked with 100 μL of water for hemolysis whereas all other samples are directly analyzed. […] The organic layer is separated and evaporated in a vacuum centrifuge. The residues are dissolved in 250 μL of acetonitrile-water (30:70 v/v) followed by 75 μl of n-hexane. […] The effluent is monitored by an UV-detector set at 270 nm.
In data set [2] the test system is P-glycoprotein and Breast-Cancer Resistance Protein (suggested by experiments in mdr1a1b(-/-) mice). Put plainly: in vivo. As to conditions: FVB, mouse.
For the next data set, the system named is Rat C6 glioma cells. Put plainly: Accumulation of CGP74588 into rat C6 glioma cells. Conditions: for average fold increase of CGP74588 accumulation: 15 min pre-incubation, 1 min incubation with CGP74588, rat C6 cells. The format is cell-based. How it is done: Rat C6 glioma cells are used as a model for glioma in in vitro or in vivo studies, to investigate the effect of this combination on cell proliferation.
Rat C6 glioma cells are maintained in high glucose Dulbecco's modified medium supplemented with 10% fetal calf serum and […] L-Glutamine in a humidified atmosphere of 95% air-5% CO2. All accumulation assays are conducted on cultures at confluence. For this purpose, the cells are seeded on 24-well plates at a density of 100×10^3 cells/cm^2 and left to proliferate in culture medium for 48 h.
For competition assays, the cultures are pre-incubated with various concentrations of the different competitors for 15 min. […] The cellular accumulation of 1.5 μM CGP74588 is also studied in C6 cells that have been pre-incubated with hydroxyurea (1, 10, 100 or 1000 μM) for 48 h.

The conditions of data set [3]: FVB wild-type mice; co-perfusion of valspodar 10 μM with imatinib 0.5 μM.
Data set [4] in a line: Blood and brain pharmacokinetics in Hanover Wistar rats after intravenous [14C]STI571 with or without PSC833.
Method: as §1, §2, §3
The target in the next data set is T1, BCRP (Homo sapiens, UniProt Q9UNQ0).
T1 sequence (Q9UNQ0 1-655): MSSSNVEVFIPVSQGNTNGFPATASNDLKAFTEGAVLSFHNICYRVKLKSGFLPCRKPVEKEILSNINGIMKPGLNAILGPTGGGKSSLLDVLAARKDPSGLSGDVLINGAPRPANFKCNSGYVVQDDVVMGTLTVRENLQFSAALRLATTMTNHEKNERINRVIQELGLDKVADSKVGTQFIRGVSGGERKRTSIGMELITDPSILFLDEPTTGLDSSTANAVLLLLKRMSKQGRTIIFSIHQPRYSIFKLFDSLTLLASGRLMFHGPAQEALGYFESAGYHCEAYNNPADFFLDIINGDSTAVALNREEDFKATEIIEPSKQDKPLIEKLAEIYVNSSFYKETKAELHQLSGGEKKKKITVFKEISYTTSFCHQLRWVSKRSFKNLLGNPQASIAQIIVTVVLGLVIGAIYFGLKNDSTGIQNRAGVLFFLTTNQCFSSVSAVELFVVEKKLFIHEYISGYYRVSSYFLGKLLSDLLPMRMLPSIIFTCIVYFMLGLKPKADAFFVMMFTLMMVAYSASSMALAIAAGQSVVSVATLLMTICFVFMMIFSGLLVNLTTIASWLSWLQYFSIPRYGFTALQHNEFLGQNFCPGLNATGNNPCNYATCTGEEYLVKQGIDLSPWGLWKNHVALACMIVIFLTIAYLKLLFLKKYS
Put plainly: BCRP efflux pump inhibition / transport.

Setting [5] is: Concentration of STI571 in brain, Mean.
The mark [6] stands for this setting: Concentration of STI571 in brain, individual data.

Usually Cmax stands for the peak of the concentration-time curve. By Tmax is commonly meant the time at which the peak concentration occurs. In general, Km refers to the concentration of substrate that gives half-maximal velocity. Regarding `Cc1ccc(NC(=O)c2ccc(CN3CCN(C)CC3)cc2)cc1Nc1nccc(-c2cccnc2)n1` [STI571, N-{5-[4-(4-methyl-piperazino-methyl)-benzoylamido]-2-methylphenyl}-4-(3-pyridyl)-2-pyrimidine-amine], in “in vivo”, the concentration peaked (Cmax) at 893 ng/g and the Tmax was determined as 15 min. In “in vivo” (setting [5]), this molecule displayed a concentration at 0.25 h of 893 ng/g, a concentration at 0.5 h of 533 ng/g, a concentration at 1 h of 550 ng/g and a concentration at 2 h of 333 ng/g. In addition, in “in vivo” (setting [5]), the concentration at 4 h is 115 ng/g and the concentration at 8 h was determined as 38 ng/g. In “in vivo” (setting [6]), the concentration at 1 h worked out at 540 ng/g, the concentration at 2 h was found to be 402 ng/g, the concentration at 4 h turned out to be 102 ng/g and the concentration at 8 h came out at 52 ng/g. Further, in data set [1], the “time post dose at which brain Cmax is reached” value turned out to be 15 min. Also, the Michaelis constant (Km) in data set [2] is 5 to 10 µM.
`C/C=C/C[C@@H](C)C(=O)[C@H]1C(=O)N[C@@H](C(C)C)C(=O)N(C)CC(=O)N(C)[C@@H](CC(C)C)C(=O)N[C@@H](C(C)C)C(=O)N(C)[C@@H](CC(C)C)C(=O)N[C@@H](C)C(=O)N[C@H](C)C(=O)N(C)[C@@H](CC(C)C)C(=O)N(C)[C@@H](CC(C)C)C(=O)N(C)[C@@H](C(C)C)C(=O)N1C` [valspodar, [3′-desoxy-3′-oxo-MeBmt]^1-[Val]^2-Ciclosporin A]: the results for the “average fold increase of CGP74588 accumulation” value (from here on “average fold increase”) with Rat C6 glioma cells (inhibitor 1 μM) and in the data set on Rat C6 glioma cells (inhibitor 10 μM) were 1.7 fold and 2.3 fold, respectively. For the same molecule, in data set [3], the “effect on distribution of imatinib into the brain” value is listed as “markedly enhance”. The “effect on the elimination slope of unchanged STI571 from brain to blood” value in data set [4] (12.5 mg/kg STI571 and 10 mg/kg PSC833 i.v.) is on record as “does not significantly modify”. Further, the “impact on the plasma pharmacokinetics of imatinib” value in data set [4] (valspodar 10 mg/kg i.v. with imatinib 12.5 mg/kg i.v.) is on record as “no significant impact”.
Regarding `COc1cc2c(cc1OC)CN(CCc1ccc(NC(=O)c3cccc4c(=O)c5cccc(OC)c5[nH]c34)cc1)CC2` [elacridar], the “average fold increase” value in the data set with Rat C6 glioma cells (inhibitor 1 μM) stood at 1.7 fold; with Rat C6 glioma cells (inhibitor 10 μM), 2.3 fold.
As for `Cl.Cl.Cl.O[C@@H](COc1cccc2ncccc12)CN1CCN(C2c3ccccc3[C@@H]3[C@H](c4ccccc42)C3(F)F)CC1` (stereo partly drawn) [zosuquidar, 1-[4-(1,1-difluor-1,1aR,6S,10bS-tetrahydrodibenzo[a,e]-cyclo-propa[c]cyclohepten-6-yl)piperazin-1-yl]-3-(chinolin-5-yloxy)-2(R)-propanol-trihydrochloride], the entries for the “average fold increase” value in the data set on Rat C6 glioma cells (inhibitor 1 μM) and in the data set on Rat C6 glioma cells (inhibitor 10 μM) were 1.7 fold and 2.3 fold, respectively.
`Cc1ccc(NC(=O)c2ccc(CN3CCNCC3)cc2)cc1Nc1nccc(-c2cccnc2)n1` [CGP74588, N-{5-[4-(piperazino-methyl)-benzoylamido]-2-methylphenyl}-4-(3-pyridyl)-2-pyrimidine-amine]: in the data set on Rat C6 glioma cells (CGP74588 0.5-50 μM), the “accumulation in rat C6 cells” value is reported as “concentration dependant”. For the same molecule, at BCRP, the BCRP inhibition entry was “not” and the “transport by efflux pump” value was “dominated by BCRP”.
